The text below walks through data of patent US20100022559A1, “BISOXIMES AS FUNGICIDES” (BAYER CROPSCIENCE AG, priority 2006, published 2010).

The first series is described as follows: logP determination by HPLC on a reversed-phase column (C 18), EEC Directive 79/831 Annex V.A8. The series is classed as physicochemical. The settings on record: [a] acidic range, pH 2.3, 0.1% aqueous phosphoric acid and acetonitrile. How it is done: The stated logP values were determined in accordance with EEC Directive 79/831 Annex V.A8 by HPLC (high performance liquid chromatography) on a reversed-phase column (C 18). Temperature: 43° C.
As for `C/C(=N\OCCCCON)c1ccc(C)c(C)n1` [XII-17], the logP was 0.51^[a]. Consider `C/C(=N\OCC(C)(C)CON)c1cc(C(F)(F)F)cc(C)n1` [XII-16], for which the logP is 2.69^[a].

Still in this series, the particulars now being: [b] LC-MS, acidic range, pH 2.7, 0.1% aqueous formic acid and acetonitrile.
For the compound `C/C(=N\OCC(C)(C)CON)c1cc(C(F)(F)F)cc(C)n1` [XII-16], the logP is 2.69^[b].

The same series, now with this note: [c] LC-MS, neutral range, pH 7.8, 0.001 molar aqueous ammonium bicarbonate solution and acetonitrile.
For `C/C(=N\OCC(C)(C)CON)c1cc(C(F)(F)F)cc(C)n1` [XII-16], the logP was 3.92^[c].

The same series, now with this note: method marked [a] in Table 1.
On to `CCc1cc(-c2ccccc2)cc(C(C)=NOCC(C)CON=C(C)c2cc(-c3ccccc3)cc(CC)n2)n1` (stereo not shown) [compound 692], for which the logP is 7.36^[a]. For `Cc1cccc(C(=NOCC(C)CON=C(c2ccccc2)c2cccc(C)n2)c2ccccc2)n1` (single isomer, unassigned) [compound 661], the logP was 4.10^[a] (isomer A). Take `CCC(=NOCC(C)(C)CON=C(CC)c1cc(C)cc(C)n1)c1cc(C)cc(C)n1` (mixture of isomers) [Compound 571]: the logP was 3.92^[a].

The same series, now with this note: method marked [b] in Table 1.
Take `CC(=NOCC(O)CON=C(C)c1cc(C)cc(C)n1)c1cc(C)cc(C)n1` (stereo not shown) [compound 560]: the logP is 1.22[b]. With `CC(=NOCC(C)(C)CON=C(c1cccc(C)n1)C(C)C)c1cccc(C)n1` [compound 547], the logP was 4.57^[b]. For the compound `CC(=NOCc1ccccc1CON=C(C)c1cccc(C)n1)c1cccc(C)n1` [compound 703], the logP was 4.26^[b]. As for `CC(=NOCc1ccc(CON=C(C)c2cccc(C)n2)cc1)c1cccc(C)n1` [compound 705], the logP is 4.27^[b]. Still for that read-out and setting: the figure for `CC(=NOCC(C)(C)CON=C(C)c1ccc(C)o1)c1ccc(C)o1` [Compound 698] is 5.00^[b].

As to `CC(=NOCc1cccc(CON=C(C)c2cccc(C)n2)n1)c1cccc(C)n1` [Compound 740], the logP was 2.49^[b]. In the case of `CC(=NOCC1(CON=C(C)c2cccc(C)n2)CC(CC(C)C)=NO1)c1cccc(C)n1` (stereo not shown) [compound 599], the logP is 3.89^[b]. Consider `CC(=NOCc1cccc(CON=C(C)c2nc(C)c(C)s2)c1)c1nc(C)c(C)s1` [compound 732], for which the logP is 5.71^[b]. On to `C=Cc1cccc(C(C)=NOCC(C)CON=C(C)c2cccc(C=C)n2)n1` (stereo not shown) [compound 685], for which the logP was 6.6^[b]. Regarding `CC(=NOc1ncnc(ON=C(C)c2cccc(C)n2)c1F)c1cccc(C)n1` [compound 727], the logP is 3.13^[b].

As to `Cc1cc(C)cc(/C(N)=N/OCc2ccccc2CO/N=C(\N)c2cc(C)cc(C)c2)c1` [compound 710], the logP was 3.68^[b]. As to `CC(=NOCC#CCON=C(C)c1cccc(C)n1)c1cccc(C)n1` [Compound 706], the logP was 3.12^[b].

As to `CC(=NOCC(CON=C(C)c1ccc(C)c(C)n1)C(C)C)c1ccc(C)c(C)n1` (stereo not shown) [Compound 681], the logP was 4.57^[b].

The same series, now with this note: method marked [c] in Table 1.
As for `CC(=NOCc1cccc(CON=C(C)c2cc(C)cc(C)n2)n1)c1cc(C)cc(C)n1` [compound 742], the logP was 4.96^[c]. On to `CC(=NOCC(O)CON=C(C)c1cc(C)cc(C)n1)c1cc(C)cc(C)n1` (stereo not shown) [compound 560], for which the logP was 3.68^[c]. Turning to `CC(=NOCc1cccc(CON=C(C)c2cccc(C)n2)n1)c1cccc(C)n1` [Compound 740], the logP is 4.33^[c]. Consider `CC(=NOCC(CON=C(C)c1ccc(C)c(C)n1)C(C)C)c1ccc(C)c(C)n1` (stereo not shown) [Compound 681], for which the logP was 7.18^[c].

Staying with this series, now noted: method marker [a] (footnote not shown); isomer A / isomer B / isomer mixture as noted in the cell.
As to `CC(=NOCC(C)CON=C(C)c1ccc(C)c(C)n1)c1ccc(C)c(C)n1` (stereo not shown) [Compound 118], the logP is 2.99^[a].

Turning to `CCCC(=NOCC(C)CON=C(CCC)c1cccc(C)n1)c1cccc(C)n1` (stereo not shown) [Compound 112], the logP was 6.61^[a].

Staying with this series, now noted: method marker [b]; isomer A / isomer B / isomer mixture as noted in the cell.
Regarding `C=C(CON=C(C)c1cccc(C)n1)CON=C(CC(C)C)c1ncccc1C` (single isomer, unassigned) [compound 155], the logP is 4.40^[b] (isomer A). Turning to `C=C(CON=C(C)c1cccc(C)n1)CON=C(N)c1nc(C)c(C(C)CC)c(C2CC2)n1` (stereo not shown) [Compound 244], the logP is 3.99^[b].

`C=C(CON=C(C)c1cccc(C)n1)CON=C(N)c1nc(C)c(Cl)c(C)n1` [compound 184]: the logP was 2.61^[b]. With `C=C(CON=C(C)c1cccc(C)n1)CON=C(C)c1ncc(C(F)(F)F)cc1Cl` (single isomer, unassigned) [compound 135], the logP is 4.95^[b] (isomer B). On the same count and under the same terms, for `CC(=NOCCCON=C(C)c1sc(C)nc1C)c1sc(C)nc1C` [compound 54] the value was 3.10^[b].

As for `C=C(CON=C(C)c1cccc(Br)n1)CON=C(C)c1cccc(Br)n1` [compound 150], the logP is 5.96^[b]. As to `C=C(CON=C(C)c1cccc(C)n1)CON=C(C)c1cccc(C)n1` [Compound 9], the logP was 3.33^[b].

For `CC(=NOCCCON=C(C)c1cc(C)ccn1)c1cc(C)ccn1` [compound 35], the logP was 1.94^[b]. `CC(=NOCCCON=C(C)c1nc(C)c(C)s1)c1nc(C)c(C)s1` [compound 51]: the logP is 5.03^[b]. In the case of `N/C(=N\OCO/N=C(\N)c1nc(C2CC2)cc(C2CC2)n1)c1nc(C2CC2)cc(C2CC2)n1` [compound 42], the logP was 2.92^[b]. With `C=C(CON=C(C)c1ncccc1Cl)CON=C(C)c1ncccc1Cl` [compound 144], the logP is 3.64^[b]. The same measure, in the same setting: the figure for `C=C(CON=C(C)c1cccs1)CON=C(C)c1cccs1` (single isomer, unassigned) [compound 77] is 4.84^[b] (isomer B); for `CC(=NOCCON=C(C)c1ccccn1)c1ccccn1` [compound 30] it is 2.21^[b].

Staying with this series, now noted: value marked [a].
As to `CC(=NOC(=O)NCCCC(C)CNC(=O)ON=C(C)c1ccc(C)c(C)n1)c1ccc(C)c(C)n1` (stereo not shown) [compound 861], the logP is 2.55^[a].

For the compound `CC(=NOCCCON=C(C)c1nc(C)c(C)cc1C)c1nc(C)c(C)cc1C` [compound 256], the logP was 1.84^[a]. Turning to `CC(=NOCC(C)CON=C(C)c1cccc(C#N)n1)c1cccc(C#N)n1` (stereo not shown) [Compound 800], the logP is 4.78^[a]. Turning to `CC=Cc1cc(C)nc(C(C)=NOCC(C)CON=C(C)c2cc(C=CC)cc(C)n2)c1` (stereo not shown) [compound 866], the logP was 4.57^[a].

Take `CC(=NOCC(C)(C)CON=C(C)c1ccc2c(n1)CCC2)c1ccc2c(n1)CCC2` [Compound 301]: the logP is 4.78^[a]. Same read-out and setting: for `Cc1cccc(C(Cl)=NOCC(C)CON=C(Cl)c2cccc(C)n2)n1` (stereo not shown) [Compound 824] the value was 4.58^[a].

Staying with this series, now noted: value marked [b].
For `CC(=NOCC(C)(C)CON=C(C)c1cccc(CC(C)C)n1)c1cccc(C)n1` [Compound 367], the logP is 7.07^[b]. On the same count and under the same terms, for `CC(=NOCC(C)CON=C(C)c1cccc(C)n1)c1cncc(C)c1` (stereo not shown) [compound 431] the value was 2.37^[b]; for `CC(=NOCCCCCCON=C(C)c1cccc(C)n1)c1ccc(C)nc1` [compound 394], 2.62^[b]; for `Cc1cc(C)nc(C(N)=NOC/C=C/CON=C(N)c2nc(C)cc(C)n2)n1` [Compound 772], 1.62^[b].

On to `COc1ccc(C(C)=NOCC(C)CON=C(C)c2ccc(OC)c(C)n2)nc1C` (stereo not shown) [Compound 825], for which the logP was 5.21^[b]. For `CC(=NOCC1(CON=C(C)c2ccc(C)c(C)n2)COC(=O)N1)c1ccc(C)c(C)n1` (stereo not shown) [compound 857], the logP was 1.96^[b]. Same read-out and setting: for `CC(=NOCCCCCCON=C(C)c1cccc(C)n1)c1ccncc1` [compound 454] the value was 2.62^[b]; for `CCCC(=NOCCCCON=C(C)c1cccc(C)n1)c1cccc(C)n1` [compound 330], 4.82^[b]. Consider `CC(=NOCC(C)(C)CON=C(C)c1cccc(C)n1)c1ccncc1` [compound 481], for which the logP is 2.41^[b]. Take `C=C(CON=C(C)c1cccc(C)n1)CON=C(C)c1cccc(Cc2ccccc2)n1` [Compound 350]: the logP was 5.71^[b]. Same read-out and setting: for `CC(=NOCC1(CON=C(C)c2cccc(C)n2)COC(=O)N1)c1cccc(C)n1` (stereo not shown) [compound 856] the value was 1.99^[b]; for `CC(=NOCC(C)CON=C(C)c1cccc(C)n1)c1ccnc(C)c1` (stereo not shown) [compound 432], 1.80^[b].

As to `CCCc1cccc(C(C)=NOCCCCON=C(C)c2cccc(C)n2)n1` [compound 450], the logP was 5.48^[b]. For the compound `CCC(C)(CON=C(C)c1cc(C)cc(C)n1)CON=C(C)c1cc(C)cc(C)n1` (stereo not shown) [Compound 794], the logP is 3.91^[b]. In the case of `CC(=NOCCCCON=C(C)c1sc(C)nc1C)c1cccc(C)n1` (single isomer, unassigned) [compound 374], the logP is 3.56^[b] (isomer B). For the compound `CCC(CC)(CON=C(C)c1nc(C)ccc1C)CON=C(C)c1nc(C)ccc1C` [compound 812], the logP was 5.24^[b]. The same measure, in the same setting: for `CC=Cc1cc(C)nc(C(C)=NOCC(C)CON=C(C)c2cc(C=CC)cc(C)n2)c1` (stereo not shown) [compound 866] the value was 4.57^[b]; for `CC(=NOCC(C)CON=C(C)c1nc(C)c(C)s1)c1cccc(C)n1` (stereo not shown) [compound 434], 4.85^[b].

On to `CC(=NOCC1(CON=C(C)c2nc(C)ccc2C)CC1)c1nc(C)ccc1C` (single isomer, unassigned) [compound 765], for which the logP is 3.15^[b].

Regarding `CC(=NOCCCCCCON=C(C)c1cccc(C)n1)c1cccc(C(F)(F)F)c1` [compound 387], the logP was 6.51^[b]. On to `CC(=NOCC(C)(C)CON=C(C)c1cccc(C)n1)c1cc(C)ccn1` [compound 409], for which the logP was 3.65^[b]. `C=C(CON=C(C)c1ccnc(C)c1)CON=C(C)c1cccc(C)n1` (single isomer, unassigned) [compound 362]: the logP is 1.71^[b] (isomer B). On the same count and under the same terms, for `CC(=NOCCCCCCON=C(C)c1cc(C)cc(C)n1)c1cccc(C)n1` [Compound 460] the value was 3.51^[b]. With `C=C(CON=C(C)c1cccc(C)n1)CON=C(CC)c1cccc(C)n1` [compound 358], the logP is 4.30^[b]. In the case of `CC(=NOCC1OC1CON=C(C)c1cccc(C)n1)c1cccc(C)n1` (racemic) [compound 286], the logP is 2.08^[b].

The same series, now with this note: value marked [c].
For `COc1ccc(C(C)=NOCC(C)CON=C(C)c2ccc(OC)c(C)n2)nc1C` (stereo not shown) [Compound 825], the logP was 5.58^[c]. Same read-out and setting: for `CC(=NOCC1(CON=C(C)c2ccc(C)c(C)n2)COC(=O)N1)c1ccc(C)c(C)n1` (stereo not shown) [compound 857] the value was 3.70^[c]; for `CC(=NOCC1(CON=C(C)c2cccc(C)n2)COC(=O)N1)c1cccc(C)n1` (stereo not shown) [compound 856], 2.97^[c]; for `CCC(C)(CON=C(C)c1cc(C)cc(C)n1)CON=C(C)c1cc(C)cc(C)n1` (stereo not shown) [Compound 794], 7.18^[c].

As for `CCC(CC)(CON=C(C)c1nc(C)ccc1C)CON=C(C)c1nc(C)ccc1C` [compound 812], the logP is 6.66^[c]. In the case of `CC(=NOCC1(CON=C(C)c2nc(C)ccc2C)CC1)c1nc(C)ccc1C` (single isomer, unassigned) [compound 765], the logP is 4.95^[c].
